Laboratory results from patent US20240279302A1, “OLFACTORY RECEPTOR EXPRESSING METHOD AND RESPONSE MEASUREMENT METHOD” (Kao Corporation, priority 2021, published 2024).
Each block holds one molecule with its values, some of them ahead of it.

Tests used:
[1] = target: T1, OR4S2 (original olfactory receptor) (Homo sapiens, UniProt Q8NH73); assay: Luciferase assay, sulfur compounds; assay type: cell-based
T1 construct: expressed in transfected cells; host or cells: HEK293
T1 sequence (Q8NH73 1-311): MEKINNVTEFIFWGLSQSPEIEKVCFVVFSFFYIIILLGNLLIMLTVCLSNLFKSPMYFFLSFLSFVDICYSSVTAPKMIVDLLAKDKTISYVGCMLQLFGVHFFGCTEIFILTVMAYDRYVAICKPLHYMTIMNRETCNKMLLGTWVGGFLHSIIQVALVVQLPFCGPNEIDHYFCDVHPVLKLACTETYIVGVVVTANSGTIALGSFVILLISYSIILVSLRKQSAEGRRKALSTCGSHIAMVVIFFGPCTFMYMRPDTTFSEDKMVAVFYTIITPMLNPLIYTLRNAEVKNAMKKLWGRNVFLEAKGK
Protocol: (§1) A reaction solution as to each consensus olfactory receptor prepared in Examples described above was prepared according to the composition shown in Table 4, left standing for 20 minutes in a clean bench, and then added to each well of a 96-well plate (Becton, Dickinson and Company). The original olfactory receptor was used as to OR4S2. Composition shown in Table 20 was used as to OR11H2 and OR4E2. Subsequently, 100 μL of HEK293 cells suspended in DMEM (Nacalai Tesque, Inc.) was inoculated at 2×10^5 cells/cm^2 to each well, and cultured for 24 hours in an incubator kept at 37° C. and 5% CO2. Cells expressing no olfactory receptor (Mock) were provided as a control.
(§2) The medium was removed from the cultures prepared in 1), and 75 μL of a test substance solution (methyl mercaptan (MeSH) (CAS: 74-93-1, Tokyo Chemical Industry Co., Ltd.), dimethyl sulfide (DMS) (CAS: 75-18-3, FUJIFILM Wako Pure Chemical Corp.), dimethyl disulfide (DMDS) (CAS: 624-92-0, Tokyo Chemical Industry Co., Ltd.), concentration range: 0 μM, 1 μM, 3 μM, 10 μM, 30 μM, 100 μM, and 300 μM, or dimethyl trisulfide (DMTS) (CAS: 3658-80-8, Tokyo Chemical Industry Co., Ltd.), concentration range: 0 μM, 0.1 μM, 0.3 μM, 1 μM, 3 μM, 10 μM, and 30 μM) prepared with a fresh medium was added thereto. Under a copper ion addition condition, the test substance solution was adjusted to contain 30 μM copper(II) chloride (FUJIFILM Wako Pure Chemical Corp.) in addition to the odorant. The cells were cultured for 4 hours in a CO2 incubator and the luciferase gene was expressed sufficiently in the cells. Luciferase activity was measured using Dual-Glo™ luciferase assay system (Promega Corp.) in accordance with the operation manual of the product. A luminescence value derived from firefly luciferase induced by test substance stimulation in each well of the 96-well plate was divided by a luminescence value derived from Renilla luciferase to calculate a value (fluc/hRluc) as a signal, which was then used in analysis. The signal under each transfection condition was normalized with the signal value (fluc/hRluc) under an odorant stimulation-free condition defined as 0% and the signal value (fluc/hRluc) by stimulation with 10 μM forskolin defined as 100%, and used as a response (%) in analysis.

consensus OR11H2 = target: T2, consensus OR11H2 (Homo sapiens, UniProt Q8NH07, A157T/A61V/C266F/D203A/E289A/F213L/F41L/F62C/G242R/I210T/I230L/I288V/I49T/K181M/K238L/L128F/L146H/L162I/M76I/N106T/N25R/P269S/Q137R/Q308R/Q30L/R68Q/S246A/S268G/T131A/T283A/T37K/V63A/Y156C); assay: Luciferase assay, sulfur compounds; assay type: cell-based
T2 construct: expressed in transfected cells; host or cells: HEK293
T2 sequence (Q8NH07 12-326 N25R/Q30L/T37K/F41L/I49T/A61V/F62C/V63A/R68Q/M76I/N106T/L128F/T131A/Q137R/L146H/Y156C/A157T/L162I/K181M/D203A/I210T/F213L/I230L/K238L/G242R/S246A/C266F/S268G/P269S/T283A/I288V/E289A/Q308R): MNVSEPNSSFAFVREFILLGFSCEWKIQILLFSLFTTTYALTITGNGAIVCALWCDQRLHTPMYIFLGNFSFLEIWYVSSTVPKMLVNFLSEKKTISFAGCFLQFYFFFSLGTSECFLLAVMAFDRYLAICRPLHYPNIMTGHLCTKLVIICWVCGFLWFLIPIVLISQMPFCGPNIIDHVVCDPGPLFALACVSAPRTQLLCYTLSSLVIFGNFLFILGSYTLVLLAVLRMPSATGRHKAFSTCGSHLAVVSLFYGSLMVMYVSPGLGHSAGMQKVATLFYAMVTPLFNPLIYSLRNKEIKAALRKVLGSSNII
Protocol: as §1, §2

consensus OR4E2 = target: T3, consensus OR4E2 (Homo sapiens, UniProt Q8NGC2, A48T/F285L/G158V/H228Q/I116T/I142V/I197M/I47V/L183P/M219T/M25I/M36V/Q234R/R21W/S209T/S40L/S54R/T201S/T49I/T99A/V118M/V214L); assay: Luciferase assay, sulfur compounds; assay type: cell-based
T3 construct: Flag (N); Rho tag (N); expressed in transfected cells; host or cells: HEK293
T3 sequence (Q8NGC2 1-312 R21W/M25I/M36V/S40L/I47V/A48T/T49I/S54R/T99A/I116T/V118M/I142V/G158V/L183P/I197M/T201S/S209T/V214L/M219T/H228Q/Q234R/F285L limits assumed): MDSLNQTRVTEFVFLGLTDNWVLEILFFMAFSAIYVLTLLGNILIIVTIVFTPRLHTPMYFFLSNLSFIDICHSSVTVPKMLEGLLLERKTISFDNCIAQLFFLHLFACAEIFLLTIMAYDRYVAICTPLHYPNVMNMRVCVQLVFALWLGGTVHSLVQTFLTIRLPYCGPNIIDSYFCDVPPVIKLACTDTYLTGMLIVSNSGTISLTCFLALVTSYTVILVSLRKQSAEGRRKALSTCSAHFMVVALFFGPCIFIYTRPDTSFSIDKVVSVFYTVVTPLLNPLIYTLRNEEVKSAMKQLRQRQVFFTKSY
Protocol: as §1, §2

consensus OR4C15 = target: T4, consensus OR4C15 (Homo sapiens, UniProt Q8NGM1, A218G/A270V/E23K/G63A/I200A/I247V/I275T/L152F/L222F/L266F/M197L/N174D/N209I/N278T/Q295N/R137W/R299K/T258A/T88R/V55G/V87E/W233R); assay: Luciferase assay, sulfur compounds; assay type: cell-based
T4 construct: Flag (N); Rho tag (N); expressed in transfected cells; host or cells: HEK293
T4 sequence (Q8NGM1 1-311 with the stated changes limits assumed): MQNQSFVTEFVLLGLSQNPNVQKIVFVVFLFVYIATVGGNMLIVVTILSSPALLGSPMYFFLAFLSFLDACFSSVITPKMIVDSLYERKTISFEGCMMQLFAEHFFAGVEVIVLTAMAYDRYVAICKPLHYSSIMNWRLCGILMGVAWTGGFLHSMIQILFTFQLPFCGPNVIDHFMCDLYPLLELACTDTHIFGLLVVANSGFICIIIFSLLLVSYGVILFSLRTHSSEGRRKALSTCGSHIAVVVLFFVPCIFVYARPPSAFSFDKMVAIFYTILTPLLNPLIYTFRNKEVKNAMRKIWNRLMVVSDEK
Protocol: as §1, §2

consensus OR4K17 = target: T5, consensus OR4K17 (Homo sapiens, UniProt Q8NGC6, A163V/E24Q/F120Y/F158L/G263S/I192T/I205M/I296T/I46V/K226R/L86V/P230S/S297A/V197I/V23I/V81M/V91T); assay: Luciferase assay, sulfur compounds; assay type: cell-based
T5 construct: expressed in transfected cells; host or cells: HEK293
T5 sequence (Q8NGC6 with tags, fused parts or gaps V23I/E24Q/I46V/V81M/L86V/V91T/F120Y/F158L/A163V/I192T/V197I/I205M/K226R/P230S/G263S/I296T/S297A): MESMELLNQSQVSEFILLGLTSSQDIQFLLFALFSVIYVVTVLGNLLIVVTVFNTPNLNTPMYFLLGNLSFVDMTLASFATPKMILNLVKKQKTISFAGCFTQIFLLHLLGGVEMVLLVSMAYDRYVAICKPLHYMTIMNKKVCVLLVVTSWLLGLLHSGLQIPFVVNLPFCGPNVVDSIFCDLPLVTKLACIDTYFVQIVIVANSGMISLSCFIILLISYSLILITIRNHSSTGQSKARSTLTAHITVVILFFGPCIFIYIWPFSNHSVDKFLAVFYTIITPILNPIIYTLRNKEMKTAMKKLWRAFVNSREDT
Protocol: as §1, §2

OR4E2 = OR4E2 (Homo sapiens, UniProt Q8NGC2); conditions: in the presence of a metal ion (JP-A-2020-513564); cited from earlier work
Sequence of OR4E2 (Q8NGC2 whole entry): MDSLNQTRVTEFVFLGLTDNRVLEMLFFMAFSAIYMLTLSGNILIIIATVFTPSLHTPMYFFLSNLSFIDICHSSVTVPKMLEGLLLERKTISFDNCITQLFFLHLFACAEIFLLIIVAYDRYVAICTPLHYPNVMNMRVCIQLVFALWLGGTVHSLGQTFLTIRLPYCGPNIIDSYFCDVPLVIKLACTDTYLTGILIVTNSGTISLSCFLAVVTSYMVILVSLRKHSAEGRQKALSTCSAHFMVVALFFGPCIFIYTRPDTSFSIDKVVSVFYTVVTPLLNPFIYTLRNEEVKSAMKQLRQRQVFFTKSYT

[2] = system: HEK293 cells expressing olfactory receptor; assay: Luciferase assay: ligand responsiveness of consensus vs original olfactory receptors; assay type: cell-based, human; conditions: consensus design
Protocol: For luciferase assay, a reaction solution was prepared according to composition shown in Table 4, left standing for 20 minutes in a clean bench, and then added to each well of a 96-well plate (Becton, Dickinson and Company). Subsequently, 100 μL of HEK293 cells suspended in DMEM (Nacalai Tesque, Inc.) was inoculated at 2×10^5 cells/cm^2 to each well, and cultured for 24 hours in an incubator kept at 37° C. and 5% CO2. Cells expressing no olfactory receptor (Mock) were provided as a control.
The medium was removed from the cultures prepared in 2), and 75 μL of a test substance solution with a predetermined concentration prepared with a fresh medium was added thereto. The cells were cultured for 4 hours in a CO2 incubator and the luciferase gene was sufficiently expresses in the cells. Luciferase activity was measured using Dual-Glo™ luciferase assay system (Promega Corp.) in accordance with the operation manual of the product. A luminescence value derived from firefly luciferase induced by test substance stimulation in each well of the 96-well plate was divided by a luminescence value derived from Renilla luciferase to calculate a signal, which was then used in analysis. The signal under each transfection condition was normalized with the signal under a stimulation-free condition defined as 0% and the signal by stimulation with 30 μM forskolin defined as 100%, and used as a response (%) in analysis.

[3] = in the presence of a copper ion

EC50 ([1]; OR4S2 (original), 30 μM CuCl2, read-out: EC50(μM) with 30 μM CuCl2): 22 µM
dose dependence of the response of OR4S2 [1, 3]: dose-dependent manner
response of OR4S2 [1, 3]: responded
EC50 (consensus OR11H2; consensus OR11H2, 30 μM CuCl2): 22 µM
dose dependence of the response of consensus OR11H2 (consensus OR11H2; [3]): dose-dependent manner
response of consensus OR11H2 (consensus OR11H2; [3]): responded
EC50 (consensus OR4E2; consensus OR4E2, 30 μM CuCl2, read-out: EC50(μM) with 30 μM CuCl2): 22 µM
dose dependence of the response of consensus OR4E2 (consensus OR4E2; [3]): dose-dependent manner
response of consensus OR4E2 (consensus OR4E2; [3]): responded
EC50 (consensus OR4C15; consensus OR4C15, 30 μM CuCl2, read-out: EC50(μM) with 30 μM CuCl2): 414 µM
dose dependence of the response of consensus OR4C15 (consensus OR4C15; [3]): dose-dependent manner
response of consensus OR4C15 (consensus OR4C15; [3]): responded
EC50 (consensus OR4K17; consensus OR4K17, 30 μM CuCl2, read-out: EC50(μM) with 30 μM CuCl2): 188 µM
dose dependence of the response of consensus OR4K17 (consensus OR4K17; [3]): dose-dependent manner
response of consensus OR4K17 (consensus OR4K17; [3]): responded
Molecule: CSC [dimethyl sulfide]

Molecule: CC(C)(S)CCO [3-mercapto-3-methylbutanol]
response of OR4E2 (OR4E2): responds

Molecule: C=CCSSSCC=C [diallyl trisulfide]
response of OR4E2 (OR4E2): responds

B1: consensus OR2A25 (b): consensus olfactory receptor polypeptide (protein)
chain: MGGNQTSITEFLLLGFPVGPRIQMLLFGLFSLFYVFTLLGNGTILGLISLDSRLHTPMYFFLSHLAVVDIAYACNTVPQMLVNLLHPAKPISFAGCMTQTFLFLSFAHTECLLLVVMSYDRYVAICHPLRYSAIMTWRVCITLALTSWTLGVLLALIHLVLLLPLPFCRPQKINHFFCEIMAVLKLACADTHINEVMVLAGAISVLVGPLSSIVVSYMCILCAILKIQSGEGQRKAFSTCSSHLCVVGLFYGTAIIMYVGPQYGNPKEQKKYLLLFHSLFNPMLNPLIYSLRNSEVKNTLKRMLEKERAL
modifications: OR2A25 consensus-b
notes: consensus olfactory receptor polypeptide
ligand responsiveness in comparison with the original human receptor [2]: sufficiently elevated

B2: consensus OR7A17 (a): consensus olfactory receptor polypeptide (protein)
chain: MEPENDTGISEFLLLGLSEEPELQPFLFGLFLSMYLVTVLGNLLIILATISDSHLHTPMYFFLSNLSFADICFISTTVPKMLINIQTQSRVITYAGCITQMCFFVLFGGLDSLLLAVMAYDRFVAICHPLHYTVIMNPRLCGLLVLASWMIAALNSLSQSLMVLWLSFCTDLEIPHFFCELNQVIHLACSDTFLNDMGMYFAAGLLAGGPLAGILYSYSKIVSSIRAISSAQGKYKAFSTCASHLSVVSLFCCTGLGVYLTSAATHNSHTSATASVMYTVATPMLNPFIYSLRNKDIKRALKMSFRGKQ
modifications: OR7A17 consensus-a
notes: as for B1
ligand responsiveness in comparison with the original human receptor [2]: elevates responsiveness

B3: consensus OR7D4 (c): consensus olfactory receptor polypeptide (protein)
chain: MEAENHTEVSEFLLLGLSEDPELQPLLFGLFLSMYLVTVLGNLLIILAISSDSHLHTPMYFFLSNLSFVDICFISTTVPKMLVNIQAQSKDISYMGCLTQVYFFMIFAGMDNFLLTVMAYDRFVAICHPLHYTVIMNPRLCGLLVLASWFIIFWVSLVHILLMKRLTFCTGTEIPHFFCELAQVLKVACSDTLINNIVLYVATALLGVFPLTGILFSYSQIVSSLMRMSSTKGKYKAFSTCGSHLSVVSLFYGTGLGVYLSSAVTHSSQSSSIASVMYTVVTPMLNPFIYSLRNKDVKGALGRLLSRAASCP
modifications: OR7D4 consensus-c
notes: as for B1
ligand responsiveness in comparison with the original human receptor [2]: sufficiently elevated

B4: consensus OR4S2 (b): consensus olfactory receptor polypeptide (protein)
chain: MEKINNVTEFIFWGLSQSPEVQRVCFVVFLFFYIAIVLGNLLIVLTVCLSNSLKSPMYFFLSFLSFVEICYSSVTAPKMIVDLLAKDKTISYVGCMLQLFFVHFFGCTEIFLLTVMAYDRYVAICKPLHYMTIMNRQTCNKLVLGTWVGGFLHSIIQVLLVVQLPFCGPNVIDHYFCDLHPVLKLACTDTFIVGVVVTANSGTIALGSFVILLISYSIILVSLRKQSAEGRRKALSTCGSHITVVILFFGPCIFMYMRPSTTFSEDKMVAVFYTIITPMLNPLIYTLRNAEVKNAMKKLWGRNVFLEAKGK
modifications: OR4S2 consensus-b
notes: as for B1
ligand responsiveness in comparison with the original human receptor [2]: elevates responsiveness
